Results taken from patent publication US7517874B2 (priority 2007, dated 2009).

Columns and labels:
[1] = target: human CB1 receptor (hCB1) (Homo sapiens, UniProt P21554); assay: cell-based; type: cell-based; details: for +/− HCB1: agonist or inverse agonist at hCB1
How it was run: (§1)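 First, cells in IBMX-containing HEPES-buffered HBSS are raised to elevated cAMP with 2-8 μM NKH-477 for 30 min. Data are normalised to the forskolin and forskolin + 1 μM CP55,940 controls.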

rat CB2 receptor (rCB2) = target: T1, rat CB2 receptor (rCB2) (Rattus norvegicus, UniProt Q9QZN9); assay: cell-based; type: cell-based; details: for +/− RCB2: agonist or inverse agonist at rCB2
T1 sequence (Q9QZN9 1-360): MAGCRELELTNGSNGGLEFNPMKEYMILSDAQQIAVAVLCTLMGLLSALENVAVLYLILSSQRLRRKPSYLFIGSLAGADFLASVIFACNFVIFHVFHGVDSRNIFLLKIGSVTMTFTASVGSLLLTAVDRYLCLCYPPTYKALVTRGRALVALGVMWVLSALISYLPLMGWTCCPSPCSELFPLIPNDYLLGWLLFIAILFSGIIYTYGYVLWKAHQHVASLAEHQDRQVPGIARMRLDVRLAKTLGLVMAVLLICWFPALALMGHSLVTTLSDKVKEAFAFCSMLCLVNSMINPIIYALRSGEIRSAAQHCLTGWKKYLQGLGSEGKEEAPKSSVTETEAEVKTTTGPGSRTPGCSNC
How it was run: as §1

human CB1 receptor (hCB1), sequence (P21554 whole entry): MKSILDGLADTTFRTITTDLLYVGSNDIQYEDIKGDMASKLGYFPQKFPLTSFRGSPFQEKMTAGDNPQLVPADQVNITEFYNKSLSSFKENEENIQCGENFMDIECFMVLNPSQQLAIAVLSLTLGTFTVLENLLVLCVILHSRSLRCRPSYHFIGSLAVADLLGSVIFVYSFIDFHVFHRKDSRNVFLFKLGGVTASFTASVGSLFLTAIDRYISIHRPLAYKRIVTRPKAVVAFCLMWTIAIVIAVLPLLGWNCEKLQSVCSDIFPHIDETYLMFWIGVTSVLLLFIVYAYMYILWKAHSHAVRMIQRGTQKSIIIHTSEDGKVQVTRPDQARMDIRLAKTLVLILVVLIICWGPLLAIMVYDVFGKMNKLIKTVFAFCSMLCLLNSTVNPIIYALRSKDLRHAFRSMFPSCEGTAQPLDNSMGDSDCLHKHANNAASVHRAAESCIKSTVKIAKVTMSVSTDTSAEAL

Compound	EC50 [1] [µM]	+/− RCB2 (rat CB2 receptor (rCB2))	EC50 (rat CB2 receptor (rCB2)) [µM]	+/− HCB1 [1]
COC(=O)[C@@H](NC(=O)c1nc(-c2ccccc2)n2c1CN(C(C)C)CCC2)C(C)(C)C [Compound 468, (S)-methyl 2-(8-isopropyl-3-phenyl-6,7,8,9-tetrahydro-5H-imidazo[1,5-a][1,4]diazepine-1-carboxamido)-3,3-dimethylbutanoate]	> 10	−		
COC(=O)[C@@H](NC(=O)c1nc(-c2ccc(C)cc2F)n2c1CN(C)CCC2)C(C)(C)C [Compound 469, (S)-methyl 2-(3-(2-fluoro-4-methylphenyl)-8-methyl-6,7,8,9-tetrahydro-5H-imidazo[1,5-a][1,4]diazepine-1-carboxamido)-3,3-dimethylbutanoate]	> 10		> 10	
COC(=O)[C@@H](NC(=O)c1nc(-c2ccc(C)cc2F)n2c1CN(CC1CC1)CCC2)C(C)(C)C [Compound 470, (S)-methyl 2-(8-(cyclopropylmethyl)-3-(2-fluoro-4-methylphenyl)-6,7,8,9-tetrahydro-5H-imidazo[1,5-a][1,4]diazepine-1-carboxamido)-3,3-dimethylbutanoate]	> 10	−		
CN1CCCn2c(-c3ccccc3)nc(C(=O)N[C@H](C(=O)O)C(C)(C)C)c2C1 [Compound 471, (S)-3,3-dimethyl-2-(8-methyl-3-phenyl-6,7,8,9-tetrahydro-5H-imidazo[1,5-a][1,4]diazepine-1-carboxamido)butanoic acid]	> 10		> 10	
CC(C)NC(=O)[C@@H](NC(=O)c1nc(-c2ccccc2)n2c1CN(C)CCC2)C(C)(C)C [Compound 472, (S)-N-(1-(isopropylamino)-3,3-dimethyl-1-oxobutan-2-yl)-8-methyl-3-phenyl-6,7,8,9-tetrahydro-5H-imidazo[1,5-a][1,4]diazepine-1-carboxamide]	> 10	+		
CCCNC(=O)[C@@H](NC(=O)c1nc(-c2ccccc2)n2c1CN(C)CCC2)C(C)(C)C [Compound 473, (S)-N-(3,3-dimethyl-1-oxo-1-(propylamino)butan-2-yl)-8-methyl-3-phenyl-6,7,8,9-tetrahydro-5H-imidazo[1,5-a][1,4]diazepine-1-carboxamide]	> 10	+		
CC(C)CNC(=O)[C@@H](NC(=O)c1nc(-c2ccccc2)n2c1CN(C)CCC2)C(C)(C)C [Compound 474, (S)-N-(1-(isobutylamino)-3,3-dimethyl-1-oxobutan-2-yl)-8-methyl-3-phenyl-6,7,8,9-tetrahydro-5H-imidazo[1,5-a][1,4]diazepine-1-carboxamide]	> 10	+		
COCCNC(=O)[C@@H](NC(=O)c1nc(-c2ccccc2)n2c1CN(C)CCC2)C(C)(C)C [Compound 475, (S)-N-(1-(2-methoxyethylamino)-3,3-dimethyl-1-oxobutan-2-yl)-8-methyl-3-phenyl-6,7,8,9-tetrahydro-5H-imidazo[1,5-a][1,4]diazepine-1-carboxamide]	> 10	+		
CN1CCCn2c(-c3ccccc3)nc(C(=O)N[C@H](C(=O)NCCF)C(C)(C)C)c2C1 [Compound 476, (S)-N-(1-(2-fluoroethylamino)-3,3-dimethyl-1-oxobutan-2-yl)-8-methyl-3-phenyl-6,7,8,9-tetrahydro-5H-imidazo[1,5-a][1,4]diazepine-1-carboxamide]	> 10	+		
CN1CCCn2c(-c3ccccc3)nc(C(=O)N[C@H](C(=O)NC3CC3)C(C)(C)C)c2C1 [Compound 477, (S)-N-(1-(cyclopropylamino)-3,3-dimethyl-1-oxobutan-2-yl)-8-methyl-3-phenyl-6,7,8,9-tetrahydro-5H-imidazo[1,5-a][1,4]diazepine-1-carboxamide]	> 10	+		
CCNC(=O)[C@@H](NC(=O)c1nc(-c2ccccc2)n2c1CN(C)CCC2)C(C)(C)C [Compound 478, (S)-N-(1-(ethylamino)-3,3-dimethyl-1-oxobutan-2-yl)-8-methyl-3-phenyl-6,7,8,9-tetrahydro-5H-imidazo[1,5-a][1,4]diazepine-1-carboxamide]	> 10	+		
CN1CCCn2c(-c3ccccc3)nc(C(=O)N[C@H](C(=O)NCC3CCOCC3)C(C)(C)C)c2C1 [Compound 479, (S)-N-(3,3-dimethyl-1-oxo-1-((tetrahydro-2H-pyran-4-yl)methylamino)butan-2-yl)-8-methyl-3-phenyl-6,7,8,9-tetrahydro-5H-imidazo[1,5-a][1,4]diazepine-1-carboxamide]	> 10	+		
CN1CCCn2c(-c3ccccc3)nc(C(=O)N[C@H](C(=O)NC3CCC3)C(C)(C)C)c2C1 [Compound 480, (S)-N-(1-(cyclobutylamino)-3,3-dimethyl-1-oxobutan-2-yl)-8-methyl-3-phenyl-6,7,8,9-tetrahydro-5H-imidazo[1,5-a][1,4]diazepine-1-carboxamide]	> 10		> 10	
CNC(=O)[C@@H](NC(=O)c1nc(-c2ccccc2)n2c1C[N+](C)(C)CCC2)C(C)(C)C [Compound 481, (S)-1-(3,3-dimethyl-1-(methylamino)-1-oxobutan-2-ylcarbamoyl)-8,8-dimethyl-3-phenyl-6,7,8,9-tetrahydro-5H-imidazo[1,5-a][1,4]diazepin-8-ium]	> 10		> 10	
CNC(=O)[C@@H](NC(=O)c1nc(-c2ccc(Cl)cc2F)n2c1CN(c1ncccn1)CCC2)C(C)(C)C [Compound 482, 3-(4-chloro-2-fluorophenyl)-N-(3,3-dimethyl-1-(methylamino)-1-oxobutan-2-yl)-8-(pyrimidin-2-yl)-6,7,8,9-tetrahydro-5H-imidazo[1,5-a][1,4]diazepine-1-carboxamide]		+		+
CNC(=O)[C@@H](NC(=O)c1nc(-c2ccccc2)n2c1CN(c1ncccn1)CCC2)C(C)(C)C [Compound 483, (S)-N-(3,3-dimethyl-1-(methylamino)-1-oxobutan-2-yl)-3-phenyl-8-(pyrimidin-2-yl)-6,7,8,9-tetrahydro-5H-imidazo[1,5-a][1,4]diazepine-1-carboxamide]		−		+
CCCCCc1nc(C(=O)N[C@H](C(=O)NC)C(C)(C)C)c2n1CCCN(C)C2 [Compound 484, (S)-N-(3,3-dimethyl-1-(methylamino)-1-oxobutan-2-yl)-8-methyl-3-pentyl-6,7,8,9-tetrahydro-5H-imidazo[1,5-a][1,4]diazepine-1-carboxamide]	> 10		> 10	
CCCc1nc(C(=O)N[C@H](C(=O)NC)C(C)(C)C)c2n1CCCN(C)C2 [Compound 485, (S)-N-(3,3-dimethyl-1-(methylamino)-1-oxobutan-2-yl)-8-methyl-3-propyl-6,7,8,9-tetrahydro-5H-imidazo[1,5-a][1,4]diazepine-1-carboxamide]	> 10	+		
CNC(=O)[C@@H](NC(=O)c1nc(CC(C)C)n2c1CN(C)CCC2)C(C)(C)C [Compound 486, (S)-N-(3,3-dimethyl-1-(methylamino)-1-oxobutan-2-yl)-3-isobutyl-8-methyl-6,7,8,9-tetrahydro-5H-imidazo[1,5-a][1,4]diazepine-1-carboxamide]	> 10	+		
CNC(=O)[C@@H](NC(=O)c1nc(C2CCCCC2)n2c1CN(C)CCC2)C(C)(C)C [Compound 487, (S)-3-cyclohexyl-N-(3,3-dimethyl-1-(methylamino)-1-oxobutan-2-yl)-8-methyl-6,7,8,9-tetrahydro-5H-imidazo[1,5-a][1,4]diazepine-1-carboxamide]	> 10	+		
CNC(=O)[C@@H](NC(=O)c1nc(CCC(C)(C)C)n2c1CN(C)CCC2)C(C)(C)C [Compound 488, (S)-N-(3,3-dimethyl-1-(methylamino)-1-oxobutan-2-yl)-3-(3,3-dimethylbutyl)-8-methyl-6,7,8,9-tetrahydro-5H-imidazo[1,5-a][1,4]diazepine-1-carboxamide]	> 10	+		
CNC(=O)[C@@H](NC(=O)c1nc(CCCOC)n2c1CN(C)CCC2)C(C)(C)C [Compound 489, (S)-N-(3,3-dimethyl-1-(methylamino)-1-oxobutan-2-yl)-3-(3-methoxypropyl)-8-methyl-6,7,8,9-tetrahydro-5H-imidazo[1,5-a][1,4]diazepine-1-carboxamide]	> 10	+		
CNC(=O)[C@@H](NC(=O)c1nc(CCC2CC2)n2c1CN(C)CCC2)C(C)(C)C [Compound 490, (S)-3-(2-cyclopropylethyl)-N-(3,3-dimethyl-1-(methylamino)-1-oxobutan-2-yl)-8-methyl-6,7,8,9-tetrahydro-5H-imidazo[1,5-a][1,4]diazepine-1-carboxamide]	> 10	+		
CCCCCCc1nc(C(=O)N[C@H](C(=O)NC)C(C)(C)C)c2n1CCCN(C)C2 [Compound 491, (S)-N-(3,3-dimethyl-1-(methylamino)-1-oxobutan-2-yl)-3-hexyl-8-methyl-6,7,8,9-tetrahydro-5H-imidazo[1,5-a][1,4]diazepine-1-carboxamide]	> 10	+		
CCc1nc(C(=O)N[C@H](C(=O)NC)C(C)(C)C)c2n1CCCN(C)C2 [Compound 492, (S)-N-(3,3-dimethyl-1-(methylamino)-1-oxobutan-2-yl)-3-ethyl-8-methyl-6,7,8,9-tetrahydro-5H-imidazo[1,5-a][1,4]diazepine-1-carboxamide]	> 10	−		
